Test results from patent US11578055B2, “Triazacyclododecansulfonamide (“TCD”)-based protein secretion inhibitors” (KEZAR LIFE SCIENCES, priority 2018, dated 2023).
Where a name gives a salt, the structure may show the parent alone.

Tests used:
[1] = tested on: PD1 signal sequence plus 10 amino acids fused to Gaussia Luciferase (PD1-ss+10aa/Gaussia Luciferase); experiment: Dox Induced PD1-ss-Gluc Assay; assay type: cell-based; conditions: 24 hr, 293FRT/TO; read-out: 24 hr Dox Inducible PD1ssGluc 293FRT/TO: Mean IC50
From the text: FIp-In 293 T-REx™ cells were transfected with pcDNA™5/FRT/TO plasmid inserted with cDNA encoding Gaussia Luciferase fused to the 3′ end of cDNA encoding PD1 signal sequence plus 10 amino acids (N-[…]-C) (SEQ ID NO: 1). Transfected cells were selected for resistance to the selectable markers Hygromycin and Blasticidin to create a stable cell line that contained the PD1-ss+10aa/Gaussia Luciferase cDNA insert whose expression was regulated under the T-REx™ system. The day before assay, cells were trypsinized and plated in 384-well tissue culture plates. The next day, compound dilutions in DMSO/media containing doxycycline were added to the wells and incubated at 37° C., 5% CO2.
(§1) For chemical structures that include one or more stereoisomers, but are illustrated without indicating stereochemistry, the assay data refers to a mixture of stereoisomers.

[2] = tested on: full length TNFα (amino acids 1-233) fused to Gaussia Luciferase; experiment: Dox Induced TNFα-FL-Gluc Assay; assay type: cell-based; conditions: 24 hr, 293FRT/TO; read-out: 24 hr Dox Inducible TNFaFLGluc 293FRT/TO: Mean IC50
From the text: FIp-In 293 T-REx™ cells were transfected with pcDNA™5/FRT/TO plasmid inserted with cDNA encoding Gaussia Luciferase fused to the 3′ end of cDNA encoding full length TNFα (amino acids 1-233). Transfected cells were selected for resistance to the selectable markers Hygromycin and Blasticidin to create a stable cell line that contained the TNFα-FL/Gaussia Luciferase cDNA insert whose expression was regulated under the T-REx™ system. The day before assay, cells were trypsinized and plated in 384-well tissue culture plates. The next day, compound dilutions in DMSO/media containing doxycycline were added to the wells and incubated at 37° C., 5% CO2.
as §1

[3] = tested on: multiple myeloma cell line NCl-H929; experiment: H929 Cell Viability Assay; assay type: cell-based, human; conditions: Homo sapiens, NCI-H929, 48 h, H929, read-out: 48 hr H929 Viability Celltiter-Glo: Mean EC50
Experimental: The human multiple myeloma cell line NCl-H929 was cultured in Advanced RPMI 1640 media (Gibco®) supplemented with 6% fetal bovine serum, 2 mM Glutamine, and 1× Penicillin/Streptomycin. On the day of assay, cells were resuspended in RPMI 1640 media supplemented with 10% fetal bovine serum, 2 mM Glutamine, and 1× Penicillin/Streptmycin and plated in 384-well tissue culture plates and treated with compound dilutions in DMSO/media. Plates were incubated at 37° C., 5% CO2 for 48 hours. After 48 hours, Celltiter-Glo® (Promega) was added to each well and luciferase signal was quantified using Tecan Infinite M1000 Pro for cell viability determination.
as §1

[4] = tested on: multiple myeloma cell line U266B1; experiment: U266 Cell Viability Assay; assay type: cell-based, human; conditions: Homo sapiens, U-266; 48 hr, U266; read-out: 48 hr U266 Viability Celltiter-Glo: Mean EC50
Experimental: The human multiple myeloma cell line U266B1 was cultured in RPMI 1640 media supplemented with 10% fetal bovine serum, 2 mM Glutamine, and 1× Penicillin/Streptomycin. Cells were plated in 384-well tissue culture plates and treated with compound dilutions in DMSO/media. Plates were incubated at 37° C., 5% CO2 for 48 hours. After 48 hours, Celltiter-Glo® (Promega) was added to each well and luciferase signal was quantified using Tecan Infinite M1000 Pro for cell viability determination.
For chemical structures that include one or more stereoisomers, but are illustrated without indicating stereochemistry, the assay data refers to a mixture of stereoisomers

[5] = In Vitro Microsome Stability Assay (human); assay type: in vitro ADME; conditions: human, 30 min, NADPH
Experimental: (§2) Potassium phosphate (423 μL of a 0.1 M solution) was added to 8-strip deep well tubes followed by human, mouse, rat, or monkey microsomes (25 μL of a 20 mg/mL solution). The tubes were then placed on ice and the test article (2 μL of a 0.25 mM solution in DMSO) was added. The mixture was preincubated at 37° C. for 3 to 5 minutes (shaking at 150 rpm) then the reaction was initiated by adding 50 μL NADPH. An aliquot of samples (100 μL) were collected at 0 and 30 min and 200 μL of an acetonitrile mixture containing IS (compound 914) was added to quench the reaction. After centrifuging for 10 min at 4000 rpm, a mixed solution of the 20 μL of the supernatant (20 μL) plus 100 μL ACN/H2O (1:1) were injected for LC-MS/MS analysis. Liver microsome stability is assessed by the % remaining of compound at 30 min which is calculated using the following equation: [(AUCanalyteT=30/AUCIS)/(AUCanalyteT=0/AUCIS)]*100
as §1

[6] = In Vitro Microsome Stability Assay (mouse); assay type: in vitro ADME; conditions: mouse, 30 min, NADPH
Experimental: as §2, §1

[7] = In Vitro Microsome Stability Assay (rat); assay type: in vitro ADME; conditions: rat, 30 min, NADPH
Experimental: as §2, §1

[8] = In Vitro Microsome Stability Assay (monkey); assay type: in vitro ADME; conditions: monkey, 30 min, NADPH
Experimental: as §2, §1

| Compound | IC50 [1] | IC50 [2] | EC50 [3] | EC50 [4] | Liver Microsome Stability-% Left after 30 min w/ NADPH (%) Human [5] | Liver Microsome Stability-% Left after 30 min w/ NADPH (%) Mouse [6] | Liver Microsome Stability-% Left after 30 min w/ NADPH (%) Rat [7] | Liver Microsome Stability-% Left after 30 min w/ NADPH (%) Monkey [8] |
| --- | --- | --- | --- | --- | --- | --- | --- | --- |
| CN(C)c1ccc(S(=O)(=O)N2CCCN(CC3CCCCC3)CCCN(S(=O)(=O)N3CCCCC3)CC3(COC3)C2)cc1 [A17, 4-{[10-(cyclohexylmethyl)-14-(piperidine-1-sulfonyl)-2-oxa-6,10,14-triazaspiro[3.11]pentadecan-6-yl]sulfonyl}-N,N-dimethylaniline] | 0.943 µM | > 25 µM | > 25 µM | > 25 µM | 0.49% | 0.41% | 1.06% | 0.36% |
| O=S(=O)(N1CCCCC1)N1CCCN(Cc2ccccc2)CCCN(S(=O)(=O)N2CCCCC2)CC2(CC2)C1 [A18, 9-benzyl-5,13-bis(piperidin-1-ylsulfonyl)-5,9,13-triazaspiro[2.11]tetradecane hydrochloride] | > 25 µM | > 25 µM | > 25 µM | 15.5 µM | 0.04% | 0.05% | 0.11% | 0.05% |
| CN(C)c1ccc(S(=O)(=O)N2CCCN(CC3CCCCC3)CCCN(S(=O)(=O)N3CCCCC3)CC3(CC3)C2)cc1 [A19, 4-((9-(cyclohexylmethyl)-13-(piperidin-1-ylsulfonyl)-5,9,13-triazaspiro[2.11]tetradecan-5-yl)sulfonyl)-N,N-dimethylaniline hydrochloride] | 0.326 µM | > 25 µM | > 25 µM | 21.9 µM | 0.05% | 0.24% | 0.1% | 0.08% |
| CC1CCCCN1S(=O)(=O)N1CCCN(CC2CCCCC2)CCCN(S(=O)(=O)c2ccc(N(C)C)cc2)CC2(CC2)C1 (stereo not shown) [A20, 4-{[9-(cyclohexylmethyl)-13-[(2-methylpiperidin-1-yl)sulfonyl]-5,9,13-triazaspiro[2.11]tetradecan-5-yl]sulfonyl}-N,N-dimethylaniline] | 0.207 µM | > 25 µM | 12.8 µM | > 25 µM | 0.05% | 0.07% | 0.19% | 0.06% |
| CC1CCCN(S(=O)(=O)N2CCCN(CC3CCCCC3)CCCN(S(=O)(=O)c3ccc(N(C)C)cc3)CC3(CC3)C2)C1 (stereo not shown) [A21, 4-{[9-(cyclohexylmethyl)-13-[(3-methylpiperidin-1-yl)sulfonyl]-5,9,13-triazaspiro[2.11]tetradecan-5-yl]sulfonyl}-N,N-dimethylaniline] | 0.184 µM | 10 µM | 8.29 µM | > 25 µM | 0.14% | 1.77% | 0.62% | 0.11% |
| CN(C)c1ccc(S(=O)(=O)N2CCCN(CC3CCCCC3)CCCN(S(=O)(=O)N3CCCC3)CC3(CC3)C2)cc1 [A23, 4-{[9-(cyclohexylmethyl)-13-(pyrrolidine-1-sulfonyl)-5,9,13-triazaspiro[2.11]tetradecan-5-yl]sulfonyl}-N,N-dimethylaniline] | 0.759 µM | > 25 µM | > 25 µM | > 25 µM | 0.04% | 0.17% | 0.13% | 0.03% |
| O=C(c1ccc(Cl)cc1)N1CCCN(S(=O)(=O)N2CCCCC2)CC2(CC2)CN(S(=O)(=O)N2CCCCC2)CCC1 [A24, (5,13-bis(piperidin-1-ylsulfonyl)-5,9,13-triazaspiro[2.11]tetradecan-9-yl)(4-chlorophenyl)methanone] | > 25 µM | > 25 µM | > 25 µM | > 25 µM | 0.03% | 0.13% | 0.04% | 0.03% |
| CN(C)c1ccc(S(=O)(=O)N2CCCN(CC3CCCCC3)CCCN(S(=O)(=O)N3CCCCCC3)CC3(CC3)C2)cc1 [A25, 4-{[13-(azepane-1-sulfonyl)-9-(cyclohexylmethyl)-5,9,13-triazaspiro[2.11]tetradecan-5-yl]sulfonyl}-N,N-dimethylaniline] | 0.435 µM | > 25 µM | > 25 µM | > 25 µM | 0.12% | 0.32% | 4.16% | 0.2% |
| CN(C)c1ccc(S(=O)(=O)N2CCCN(CC3CCCCC3)CCCN(S(=O)(=O)N3CCC(C)(C)CC3)CC3(CC3)C2)cc1 [A26, 4-{[9-(cyclohexylmethyl)-13-[(4,4-dimethylpiperidin-1-yl)sulfonyl]-5,9,13-thazaspiro[2.11]tetradecan-5-yl]sulfonyl}-N,N-dimethylaniline] | 0.224 µM | > 25 µM | 16.1 µM | > 25 µM | 6.65% | 3.4% | 1.84% | 0.13% |
| COC1CCN(S(=O)(=O)N2CCCN(CC3CCCCC3)CCCN(S(=O)(=O)c3ccc(N(C)C)cc3)CC3(CC3)C2)CC1 [A27, 4-{[9-(cyclohexylmethyl)-13-[(4-methoxypiperidin-1-yl)sulfonyl]-5,9,13-triazaspiro[2.11]tetradecan-5-yl]sulfonyl}-N,N-dimethylaniline] | 0.493 µM | > 25 µM | > 25 µM | > 25 µM | 2.52% | 2.15% | 0.98% | 2.07% |
| Cc1cc(N(C)C)ccc1S(=O)(=O)N1CCCN(CC2CCCCC2)CCCN(S(=O)(=O)N2CCCCC2)CC2(CC2)C1 [A30, 4-{[9-(cyclohexylmethyl)-13-(piperidine-1-sulfonyl)-5,9,13-triazaspiro[2.11]tetradecan-5-yl]sulfonyl}-N,N,3-trimethylaniline] | 0.793 µM | > 25 µM | > 25 µM | > 25 µM | 0.12% | 0.35% | 0.28% | 0.03% |
